Laboratory results: PubChem BioAssay (NCI)
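1) Cells in 96-well plates. 2) Compound, 48 h, 5 concentrations. 3) Linear interpolation between surrounding doses. 4) Unreached endpoint = highest concentration. Abbreviation: GI50, concentration required for 50% inhibition of growth. TGI: concentration producing complete growth inhibition.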

Assays:
Assay in all cases: NCI tumour cell line growth inhibition, 48 h
SF-539 CNS = system: SF-539 CNS
K-562 leukemia = system: K-562 leukemia
SW-620 colon = system: SW-620 colon
IGROV1 ovarian = system: IGROV1 ovarian
OVCAR-4 ovarian = system: OVCAR-4 ovarian
NCI-H23 lung = system: NCI-H23 lung
HCC-2998 colon = system: HCC-2998 colon
A549 NSCLC = system: A549 NSCLC
BT-549 breast = system: BT-549 breast
OVCAR-3 ovarian = system: OVCAR-3 ovarian

Row | Compound | GI50 (SF-539 CNS) | TGI (SF-539 CNS) | GI50 (K-562 leukemia) | TGI (K-562 leukemia) | GI50 (SW-620 colon) | TGI (SW-620 colon) | GI50 (IGROV1 ovarian) | TGI (IGROV1 ovarian) | GI50 (OVCAR-4 ovarian) | TGI (OVCAR-4 ovarian) | GI50 (NCI-H23 lung) | TGI (NCI-H23 lung) | GI50 (HCC-2998 colon) | TGI (HCC-2998 colon) | GI50 (A549 NSCLC) | TGI (A549 NSCLC) | GI50 (BT-549 breast) | TGI (BT-549 breast) | GI50 (OVCAR-3 ovarian) | TGI (OVCAR-3 ovarian)
1 | O=CC(Br)C(Br)c1ccccc1 (stereo not given) | 1.87 µM | 4.36 µM | 0.963 µM | 6.84 µM | 0.776 µM | 2.33 µM | 11 µM | 26 µM | 1.69 µM | 3.14 µM | 3.85 µM | 24.8 µM | 15.1 µM | 29.4 µM | 21.1 µM | 49.9 µM | 2.77 µM | 8.47 µM | 1.32 µM | 2.67 µM
2 | c1cncc(-c2nc3ccccc3s2)c1 | > 100 µM | > 100 µM | > 100 µM | > 100 µM | > 100 µM | > 100 µM | 42.6 µM | > 100 µM | > 100 µM | > 100 µM | > 100 µM | > 100 µM | > 100 µM | > 100 µM | > 100 µM | > 100 µM | 74 µM | > 100 µM | > 100 µM | > 100 µM
3 | O=C1NC(=O)C(c2ccc(Cl)cc2)=C1Nc1ccc(Cl)c(C(=O)O)c1 | > 25 µM | > 25 µM | > 25 µM | > 25 µM | > 25 µM | > 25 µM | > 25 µM | > 25 µM | > 25 µM | > 25 µM | > 25 µM | > 25 µM | > 25 µM | > 25 µM | > 25 µM | > 25 µM | > 25 µM | > 25 µM | > 25 µM | > 25 µM
